# Values quoted from earlier work as cited in PMC7982506 (Acta Pharmaceutica Sinica. B, 2020).
# How the values were obtained:
# SHP2-PTP = molecular target: T1, SHP2-PTP (Homo sapiens, UniProt Q06124); settings: read-out: IC50 reported previously
# T1 sequence (Q06124 237-535): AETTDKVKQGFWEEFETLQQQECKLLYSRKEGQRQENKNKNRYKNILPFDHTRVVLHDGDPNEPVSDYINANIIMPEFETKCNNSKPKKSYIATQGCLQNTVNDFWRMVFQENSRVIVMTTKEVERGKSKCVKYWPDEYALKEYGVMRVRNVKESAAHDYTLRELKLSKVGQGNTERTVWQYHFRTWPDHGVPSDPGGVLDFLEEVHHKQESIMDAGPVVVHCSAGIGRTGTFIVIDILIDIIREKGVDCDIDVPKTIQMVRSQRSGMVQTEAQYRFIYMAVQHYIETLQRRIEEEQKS
# cell growth = settings: versus SHP099
# p-ERK = settings: versus SHP099
# SHP2-WT = molecular target: T2, SHP2-WT (Homo sapiens, UniProt Q06124); settings: read-out: EC50 of p-IRS1 peptide for SHP2-WT, previously reported
# T2 sequence (Q06124 1-535): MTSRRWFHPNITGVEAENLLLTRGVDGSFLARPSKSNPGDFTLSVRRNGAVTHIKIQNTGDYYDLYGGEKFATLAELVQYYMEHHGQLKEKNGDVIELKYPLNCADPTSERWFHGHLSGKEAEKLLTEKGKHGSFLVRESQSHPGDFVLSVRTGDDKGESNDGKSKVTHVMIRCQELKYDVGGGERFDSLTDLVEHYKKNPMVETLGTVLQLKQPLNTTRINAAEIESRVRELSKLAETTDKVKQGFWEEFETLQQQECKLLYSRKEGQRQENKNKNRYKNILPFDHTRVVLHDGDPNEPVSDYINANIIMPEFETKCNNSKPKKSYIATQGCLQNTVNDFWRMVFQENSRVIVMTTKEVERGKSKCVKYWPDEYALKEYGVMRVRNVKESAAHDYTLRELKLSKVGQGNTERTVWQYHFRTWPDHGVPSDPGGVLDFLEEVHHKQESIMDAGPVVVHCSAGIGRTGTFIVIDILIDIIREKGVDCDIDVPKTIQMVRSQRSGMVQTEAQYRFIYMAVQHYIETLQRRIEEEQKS
compound,measurement,setting,value
[Na+].[Na+].[Na+].[O]=[V]([O-])([O-])[O-] [Na3VO4],IC50,SHP2-PTP,10 µM
Cc1ncsc1-c1ccc([C@H](C)NC(=O)[C@@H]2C[C@@H](O)CN2C(=O)[C@@H](NC(=O)CCCCCCCCN2CCN(C(=O)CCC(=O)Nc3cccc(Sc4ncc(N5CCC(C)(N)CC5)nc4N)c3Cl)CC2)C(C)(C)C)cc1 [SHP2-D26],fold more potent than SHP099 in inhibition of cell growth,cell growth,30 fold
same,fold more potent than SHP099 in inhibition of p-ERK,p-ERK,30 fold
H2N-LN(pY)IDLDLV(dPEG8)LST(pY)ASINFQK-amide [p-IRS1 peptide],EC50,SHP2-WT,0.25 µM
